According to the CheMixHub ionic liquid set:

Experiment: xn = mol fraction of the nth substance listed

CC[NH+](C)CC.CS(=O)(=O)[O-] + O
Details	viscosity [mPa·s]
293.1 K, 101 kPa, x2 = 0.707	21
298.15 K, 100 kPa, x1 = 0.0967	4.51
298.15 K, 100 kPa, x1 = 0.4263	31.1
298.15 K, 100 kPa, x1 = 0.6771	69.7
303.15 K, 100 kPa, x1 = 0.0967	3.94
303.15 K, 100 kPa, x1 = 0.3246	16.6
303.15 K, 100 kPa, x1 = 0.6771	55.2
308.15 K, 100 kPa, x1 = 0.0155	1.04
308.15 K, 100 kPa, x1 = 0.5018	27.9
308.15 K, 100 kPa, x1 = 0.5783	34.2
308.15 K, 100 kPa, x1 = 0.7782	55.3
313.1 K, 101 kPa, x2 = 0.372	27.27
313.15 K, 100 kPa, x1 = 0.0571	1.79
313.15 K, 100 kPa, x1 = 0.3246	11.8
313.15 K, 100 kPa, x1 = 0.4263	18
318.15 K, 100 kPa, x1 = 0.1582	4.46
328.15 K, 100 kPa, x1 = 0.1582	3.46
328.15 K, 100 kPa, x1 = 0.206	4.6
328.15 K, 100 kPa, x1 = 0.5018	14.1
328.15 K, 100 kPa, x1 = 0.7782	25.4
333.1 K, 101 kPa, x2 = 0.372	13.95
333.1 K, 101 kPa, x2 = 0.507	9.98
333.15 K, 100 kPa, x1 = 0.0967	1.97
333.15 K, 100 kPa, x1 = 0.3246	6.65
333.15 K, 100 kPa, x1 = 0.5018	12.2
338.15 K, 100 kPa, x1 = 0.0571	1.11
338.15 K, 100 kPa, x1 = 0.3246	5.84
338.15 K, 100 kPa, x1 = 0.4263	8.21
338.15 K, 100 kPa, x1 = 0.5018	10.3
338.15 K, 100 kPa, x1 = 0.5783	12.2
338.15 K, 100 kPa, x1 = 0.6771	15.3
353.1 K, 101 kPa, x2 = 0.449	6.83
353.1 K, 101 kPa, x2 = 0.624	4.58

CC[n+]1ccn(C)c1.O=C([O-])C(F)(F)C(F)(F)C(F)(F)C(F)(F)F + O
101 kPa
Details	viscosity [mPa·s]
298.15 K, x1 = 0.02217	2.59
298.15 K, x1 = 0.1009	10.41
298.15 K, x1 = 0.2367	20.95
298.15 K, x1 = 0.4266	36.3
308.15 K, x1 = 0.03108	2.57
308.15 K, x1 = 0.04277	3.44
308.15 K, x1 = 0.08573	6
308.15 K, x1 = 0.1458	9.48
308.15 K, x1 = 0.2011	12.32
308.15 K, x1 = 0.2621	15.23
308.15 K, x1 = 0.3007	17.04
318.15 K, x1 = 0.02217	1.616
318.15 K, x1 = 0.1458	6.88
318.15 K, x1 = 0.1625	7.47

CC[n+]1ccn(C)c1.O=S(=O)([O-])C(F)(F)F + O
101 kPa
Details	electrical conductivity [S/m]	viscosity [mPa·s]
293.15 K, x1 = 0.004	–	1.07
293.15 K, x1 = 0.029	–	1.67
293.15 K, x1 = 0.041	–	2.01
293.15 K, x1 = 0.463	–	13.6
297.45 K, x2 = 0.304	1.17	–
298.15 K, x1 = 0.005	1.4	0.99
298.15 K, x1 = 0.012	2.3	1.11
298.15 K, x1 = 0.017	–	1.23
298.15 K, x1 = 0.041	–	1.78
298.15 K, x1 = 0.064	4.4	2.17
298.15 K, x1 = 0.137	4.6	3.71
303.15 K, x1 = 0.008	–	0.92
303.15 K, x1 = 0.017	–	1.09
303.15 K, x1 = 0.137	–	3.27
303.15 K, x1 = 0.391	–	8.23
303.65 K, x2 = 0.304	1.46	–
305.35 K, x2 = 0.304	1.58	–
313.15 K, x1 = 0.004	–	0.7
313.15 K, x1 = 0.017	3.9	0.89
313.15 K, x1 = 0.029	5.1	1.05
313.15 K, x1 = 0.137	6.3	2.58

COCC[n+]1ccn(C)c1.C[C@@H](O)[C@H](N)C(=O)[O-] + O
100 kPa
Details	viscosity [mPa·s]
303.15 K, x1 = 0.5348	557
303.15 K, x1 = 0.6571	581
308.15 K, x1 = 0.3313	297
318.15 K, x1 = 0.5348	163.8
323.15 K, x1 = 0.4476	114.9
323.15 K, x1 = 0.5348	120.9
323.15 K, x1 = 0.6571	126.6

C[NH+](C)C.O=S(=O)([O-])O + O
298.15 K, 101 kPa
Details	viscosity [mPa·s]
x2 = 0.0727	4.98
x2 = 0.2456	4.64
x2 = 0.3339	4.43
x2 = 0.5675	3.69
x2 = 0.8484	2.18
x2 = 0.9552	1.3

O=S(=O)([O-])C(F)(F)F.[Li+] + O
Details	electrical conductivity, 298.1 K [S/m]	electrical conductivity, 298.15 K [S/m]	electrical conductivity, 308.15 K [S/m]	electrical conductivity, 318.15 K [S/m]	electrical conductivity, 328.15 K [S/m]	viscosity, 298.15 K [mPa·s]	viscosity, 308.15 K [mPa·s]	viscosity, 318.15 K [mPa·s]	viscosity, 328.15 K [mPa·s]
100 kPa, x1 = 0.1122	–	7.3	8.94	10.9	12.7	3.7	2.9	2.27	1.85
100 kPa, x1 = 0.1783	–	4.63	5.73	6.99	8.17	9.2	6.9	5.3	4.2
100 kPa, x1 = 0.2388	–	2.6	3.26	4.06	4.89	21.9	16	11.1	8.6
100 kPa, x1 = 0.2541	–	1.98	2.53	3.16	3.92	31.8	22.6	15.9	12.2
100 kPa, x1 = 0.2743	–	1.56	2.04	2.59	3.2	47.2	32.9	23.9	18.1
101 kPa, x1 = 0.01944	4.69	–	–	–	–	–	–	–	–
101 kPa, x1 = 0.1527	4.69	–	–	–	–	–	–	–	–
101 kPa, x1 = 0.2649	1.34	–	–	–	–	–	–	–	–
101 kPa, x1 = 0.3106	0.51	–	–	–	–	–	–	–	–

[Br-].[PH3+]CCCCCCCCCCCCCC(c1ccccc1)(c1ccccc1)c1ccccc1 + O
300 K, 101 kPa
Details	electrical conductivity [S/m]
x2 = 0.503	0.00198
x2 = 0.603	0.00058
x2 = 0.802	0.00038
